The test system of data set [1] is RAW macrophage cells stimulated with 5′ppp-HP20 RNA, Pam3CSK4, poly(I:C), LPS or recombinant Ifnb. As to the kind of experiment: Selectivity: RAW macrophages stimulated with non-DNA immunogenic ligands (luciferase reporter or Il-6 qRT-PCR). The data set is classed as cell-based, mouse. The conditions noted are these: compound at EC75; 5′ppp-HP20 RNA, Pam3CSK4, poly(I:C), LPS, Ifnb. On the procedure: (§1) The sequence and annealing conditions of the dsDNA used is described above. Typically, 0.4 µg or 0.6 µg of dsDNA was used to stimulate RAW-Lucia ISG-KO-TREX1/ISG-KO-cGAS or RAW-Lucia ISG cells, respectively, which equated to 90% of maximal luciferase activity observed. dsDNA stimulation of RAW macrophages and subsequent luciferase measurements were performed with or without the addition of small molecules at indicated concentrations in each figure, or with DMSO as vehicle control. For the dose curve experiments, serial dilutions of inhibitors were applied to 6.7 × 10^5 cells, plated in 24-well dishes, and co-stimulated with 0.4 µg of dsDNA. In subsequent experiments using inhibitors in RAW cells, the small molecules were used at concentrations representing the derived EC75 values, while co-stimulated with one of the following: 0.4 µg dsDNA, 50 nM 5′ppp-HP20 hairpin RNA (a kind gift from Dr Anna Pyle, Yale University; sequence located in Supplementary Table 5), 10 µM cGAMP, or 100 U ml^−1 murine recombinant Ifnb (R&D Systems). dsDNA was transfected using Lipofectamine LTX. 5′ppp-HP20 RNA was transfected using Lipofectamine 2000. Cells were harvested 24 h post-transfection, washed with PBS, and lysed in 1× Luciferase Cell Lysis Buffer (Pierce).
(§2) The minimum numbers of biological and technical replicates for the luciferase assays were two and three, respectively. Analysis of luminescence values were evaluated for outliers (one standard deviation above and below the mean) for each biological replicate, and the resulting means were used to generate graphs in GraphPad Prism (v. 7.0c); where applicable, an unpaired t-test with Welch’s correction was used to compare the results of each individual compound to dsDNA or other stimulant. The experimental variances observed within control samples (untreated or vehicle) and treated samples were similar.
The small molecules were used at concentrations representing the EC75 values and were co-stimulated with either 200 ng Pam3CSK4 (Invivogen), 25 µg poly(I:C) or 100 ng lipopolysaccharide (Sigma-Aldrich) at the cell counts and conditions previously described for the cellular luciferase assays. Cells were harvested 24 h post-transfection, washed with PBS, and RNA was extracted using Trizol (Ambion) and chloroform (Sigma-Aldrich). In all, 1–2 µg of total RNA was reverse-transcribed using random hex primers and SuperScript III (Life Technologies) into cDNA. […] The expression of mRNAs […] murine Actb1 and Il-6 were measured (see Supplementary Table 5 for primer sequences used). Target C T values were normalized to Actb1 C T values and used to calculate ΔC T. mRNA expression of target genes were then calculated using the ΔΔC T method (2^ΔΔCT). Expression values were analyzed as described in the method for cellular luciferase assays.

In another data set the target is T1, mouse cGAS (Mus musculus, UniProt Q8C6L5).
T1 construct: recombinant full-length mouse cGAS in reaction buffer; His6-SUMO (N, cleaved yes); made in house; host or cells: E. coli BL21(DE3) RIL
The experiment in a line: RapidFire mass spectrometry (RF-MS) cGAS enzymatic assay, cGAMP product formation. The data set is classed as biochemical. The following applies: for inhibition at 12.5 µM: read-out: % inhibition at 12.5 µM. On the procedure:
The liquid was collected at the well bottom using centrifugation for 30 s at 180×g. […] Plates were centrifuged for 30 s at 180×g to collect all liquid at the bottom of the wells. […] The reaction was stopped by addition of 65 µl of 0.5% (v/v) formic acid per well. The plates were centrifuged for 30 s at 180×g and sealed with a Velocity11 PlateLoc thermal plate sealer.
The solvent used for loading/washing process was an aqueous solution of 5 mM ammonium acetate, pH 10. […] Each sample of approximately 35 µl were aspirated from a 384-well plate and separated using a Graphitic carbon Type D cartridge. After each sample was loaded onto the cartridge it was washed for 4 s at 1.5 ml min^−1 using the aqueous solvent. ATP, GTP and cGAMP were eluted for 5 s using the organic solvent at a flow rate of 1.5 ml min^−1. The cartridge was then re-equilibrated with the aqueous solvent for 5 s at a flow rate of 1.5 ml min^−1. All samples were analyzed using a negative ionization mode in the mass spectrometer, with a gas temperature of 350 °C, nebulizer pressure of 35 psig, gas flow rate of 15 l min^−1. […] The Agilent RapidFire Integrator software was used to calculate the area under the curve (AUC) of the extracted ion counts for each analyte. Data points represent values of product formation. Catalytic rates expressed as percent product formation were calculated using the AUC of cGAMP and using the AUC’s of ATP and GTP to normalize for variations in the capacity of the solid phase extraction column during a screening run, as shown in the following formula: product formation (%) = [(AUCcGAMP × 100)/(AUCcGAMP + ½ AUCATP + ½ AUCGTP)].
To determine the percent inhibition of mouse cGAS the data was normalized against the positive control (column 24) and negative control (column 23). […] The quality of the screen was assessed by Z′ factor[57] calculated as follows: Z′ = 1−[3∗(standard deviation positive control + standard deviation negative control)/(average positive control—average negative control)].

The subject of data set [2] is cGAS activity in dsDNA-stimulated RAW macrophages. The experiment in a line: Cellular luciferase assay, interferon-responsive reporter in dsDNA-stimulated RAW macrophages. The conditions noted are these: Mus musculus, Macrophage, dsDNA-activated RAW cells. In kind it is cell-based. Here is the method:
as §1, §2

The subject of another data set is RAW 264.7. As to the kind of experiment: Cytotoxicity, CellTiter-Glo ATP quantitation at 72 h. In kind it is cell-based. On the procedure: Small-molecule compounds were serially diluted to concentrations spanning the range tested in the response curves were added to 6.7 × 10^5 RAW-Blue macrophages plated 16 h prior in 96-well dishes, then harvested 72 h after compound addition. ATP was measured using CellTiter Glo Viability Assay (Promega) using 50 µM Tamoxifen (Sigma) as a positive control for cytotoxicity. Viability values were generated using vehicle (DMSO) or the first dose (RU.521) as 100% and Tamoxifen as 0%. Outliers were removed as described previously.
In general terms: ATP-based viability assays read luminescence as a measure of living cells.

Another data set concerns IFNB1-Luc activity. The experiment in a line: Interferon induction cellular assay (IFNB1-Luc) of the original manuscript version, reported in the point-by-point response. The data set is classed as cell-based. The following applies: original Fig. 5a, compared with vehicle.
Another data set concerns 45-bp dsDNA. As to the kind of experiment: DNA intercalation: acridine orange displacement from dsDNA by fluorescence polarization. The following applies: Supplementary Table 2; for % intercalation at 30 µM: acridine orange displacement compared to mitoxantrone; for Polarization: compound 30 µM. The data set is classed as binding. Here is the method:
Ten microliters of HEN buffer (10 mM HEPES pH 7.5, 1 mM EDTA pH 7.5, 100 mM NaCl) were dispensed per well using a Thermo Multidrop Combi dispenser (Thermo Scientific). The liquid was collected at the well bottom using centrifugation for 30 s at 180×g. […] The final concentration of compounds in the assay was 30 µM. […] The liquid was collected at the well bottom using centrifugation for 30 s at 180×g. […] The liquid was collected at the well bottom using centrifugation for 30 s at 180 × g and the plates were incubated for 30 min. Mitoxantrone, a known DNA intercalator was used at 50 µM as a positive control, while DMSO alone was used as negative control. FP was measured using a Biotek Synergy Neo plate reader. […] All FP values are expressed in millipolarization (mP) units. The mP values were calculated using the equation mP = 1000 × [(I S−I SB)−(I P−I PB)]/[I S—I SB) + (I P−I PB)], where I S and […] to the parallel and perpendicular emission intensity, respectively, and I SB and I SP corresponds to parallel emission intensity perpendicular emission intensity of the buffer, respectively. The experimental G-factor, defined as G = I S/I P, was set to 1.0 in all experiments.

Data set [3] has as its target cGAS (cyclic GMP-AMP synthase) (mouse, UniProt Q8C6L5 147-507). The experiment in a line: X-ray crystallography, 2.13 A; RU.365 in active site; Co-crystallization; crystallization buffer not in the material; protein stock 20 mM Tris-HCl pH 7.5, 300 mM NaCl, 1 mM DTT. ITC values are for inhibitors, and t. The following applies: protein: recombinant; tags: His6-SUMO removed by ULP1; chain copies: 2; 16 bp plus 1-nt 5' overhang at each end.

The mark [4] stands for this setting: Fig. 1e, four prioritized screening hits, confirmed with independent lots of compound, read-out: IC50.
[5] abbreviates: Supplementary Table 2, batch of compounds stored in the screening library, read-out: IC50.
[6] abbreviates: Supplementary Table 2, compound 12.5 µM.

Read-outs that look alike come from different tables or passages of the source.

T1 sequence (Q8C6L5 whole entry): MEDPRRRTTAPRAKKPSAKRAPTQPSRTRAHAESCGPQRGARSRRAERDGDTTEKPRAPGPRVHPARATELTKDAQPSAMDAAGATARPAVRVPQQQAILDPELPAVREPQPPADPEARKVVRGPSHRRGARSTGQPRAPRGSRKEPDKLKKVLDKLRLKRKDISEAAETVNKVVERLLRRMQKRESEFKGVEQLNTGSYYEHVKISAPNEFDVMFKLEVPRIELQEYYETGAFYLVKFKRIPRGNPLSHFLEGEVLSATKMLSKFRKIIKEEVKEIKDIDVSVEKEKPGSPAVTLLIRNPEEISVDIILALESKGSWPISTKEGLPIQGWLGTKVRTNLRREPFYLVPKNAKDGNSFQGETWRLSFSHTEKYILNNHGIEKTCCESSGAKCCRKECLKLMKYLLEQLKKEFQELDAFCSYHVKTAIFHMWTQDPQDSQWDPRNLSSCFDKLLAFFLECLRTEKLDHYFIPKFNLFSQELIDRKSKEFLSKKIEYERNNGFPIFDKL
Chain of cGAS (cyclic GMP-AMP synthase) (Q8C6L5 147-507): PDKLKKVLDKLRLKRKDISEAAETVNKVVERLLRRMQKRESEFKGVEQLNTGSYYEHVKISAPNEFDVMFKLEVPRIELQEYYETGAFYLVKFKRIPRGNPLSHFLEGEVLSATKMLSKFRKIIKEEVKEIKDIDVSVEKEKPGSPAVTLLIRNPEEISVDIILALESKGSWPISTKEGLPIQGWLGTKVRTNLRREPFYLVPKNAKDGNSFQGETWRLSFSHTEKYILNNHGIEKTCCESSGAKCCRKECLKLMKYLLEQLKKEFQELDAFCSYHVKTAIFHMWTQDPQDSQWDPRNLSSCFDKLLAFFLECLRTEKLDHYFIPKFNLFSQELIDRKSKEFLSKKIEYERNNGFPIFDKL

What is called IC50 is the concentration that inhibits the measured activity by half. Consider `Cc1nn(-c2nc3ccccc3s2)c(O)c1C1OC(=O)c2ccccc21` (centres unmarked) [RU281332], for which the “suppression of activation by immunogenic stimuli other than dsDNA” value in data set [1] is on record as “inhibited the activation of cells by most of the immunogenic ligands tested”. The IC50 was 1790 nM on mouse cGAS (Supplementary Table 3, analogs more potent than RU166365, read-out: IC50) and 13600 nM in data set [2]. The “effect of structural modification on cGAS inhibitory potency” value on mouse cGAS (compared with RU.365) is “did not change the potency”. In the data set with RAW 264.7, the “LD50 over cellular IC50” value turned out to be 3.5 fold. Further, in the data set on RAW 264.7 (RAW macrophages, 72 h, percent viability, listed as RU.332), the LD50 is 48 µM.
The term inhibition denotes the share of the control response that was lost under treatment. Consider `O=C1N=C(N2CCCCC2)SC1=C1C(=O)Nc2ccccc21` [RU100840], for which the IFNB1-Luc activity result with IFNB1-Luc activity is recorded as “mild activation”. In addition, in the data set with 45-bp dsDNA, the “% intercalation at 30 µM” value was -8.9% and the Polarization was found to be 269 mP. Moreover, on mouse cGAS (setting [4]), the IC50 was 30 nM. Also, the IC50 at mouse cGAS (setting [5]) amounted to 60 nM. The inhibition at 12.5 µM on mouse cGAS (setting [6]) was 88%.
As to `O=C(COc1ccc(Cl)c2ccccc12)Nc1ncccc1O` [RU191752], in the data set on IFNB1-Luc activity, the IFNB1-Luc activity result is reported as “mild activation”. Moreover, the Polarization with 45-bp dsDNA turned out to be 276 mP. In addition, the IC50 at mouse cGAS (setting [4]) worked out at 70 nM; on mouse cGAS (setting [5]), 170 nM. The inhibition at 12.5 µM on mouse cGAS (setting [6]) turned out to be 95%.
Regarding `N#Cc1ccc(/C=C2\CS(=O)(=O)c3c(F)cccc3C2=O)cc1` [RU198755], in the data set on 45-bp dsDNA, the “% intercalation at 30 µM” value is -6.2% and the Polarization was found to be 263 mP. Further, the IC50 on mouse cGAS (setting [5]) amounted to 6330 nM. In addition, the inhibition at 12.5 µM at mouse cGAS (setting [6]) came to 63%.
The like results for `Cc1nc2nc(C)c(Br)c(O)n2n1` [RU6753] were, in that order, -0.5%, 252 mP, 7990 nM and 69%.
On to `O=C(Nc1ncc([N+](=O)[O-])s1)c1cccs1` [RU187339], for which the Polarization in the data set with 45-bp dsDNA is 274 mP. In addition, the IC50 on mouse cGAS (setting [5]) was 6620 nM. Besides, the inhibition at 12.5 µM at mouse cGAS (setting [6]) was 86%.
What is called % inhibition is how much of the control response was suppressed. Read a low % inhibition as little suppression. In the case of `CCOc1ccc2nc3cc(N)ccc3c(N)c2c1` [RU1667], in the data set on 45-bp dsDNA, the “% intercalation at 30 µM” value is given as 54.5% and the Polarization is on record as 139 mP. Moreover, the 50% inhibitory concentration (IC50) at mouse cGAS (setting [5]) was found to be 1010 nM. In addition, the “% inhibition at 12.5 µM” value on mouse cGAS (setting [6]) amounted to 92%.
In the case of `COC(=O)C1=NN2C(=NS(=O)(=O)c3ccccc32)N1` [RU209189], in the data set with 45-bp dsDNA, the “% intercalation at 30 µM” value is 0.0% and the Polarization is given as 251 mP. Further, at mouse cGAS (setting [5]), the IC50 turned out to be 4440 nM. In addition, on mouse cGAS (setting [6]), the inhibition at 12.5 µM stood at 91%.
On to `Nc1c2ccccc2nc2ccccc12` [RU431], for which the Polarization in the data set with 45-bp dsDNA is listed as 145 mP. Further, the IC50 on mouse cGAS (setting [5]) is 2830 nM. For the same molecule, on mouse cGAS (setting [6]), the inhibition at 12.5 µM worked out at 78%.
For `CCOC(=O)c1n[nH]c2c1C(=O)N(CC)C2=O` [RU4893], in the data set on 45-bp dsDNA, the “% intercalation at 30 µM” value was -1.4% and the Polarization was determined as 254 mP. The IC50 at mouse cGAS (setting [5]) is 6420 nM. The inhibition at 12.5 µM at mouse cGAS (setting [6]) stood at 62%.
On to `COc1cccc2c1C(=O)c1c(O)c3c(c(O)c1C2=O)C[C@@](O)(C(=O)CO)C[C@@H]3O[C@H]1C[C@H](N)[C@H](O)[C@H](C)O1` [RU24114], for which the Polarization in the data set on 45-bp dsDNA came to 53 mP. At mouse cGAS, the midpoint of inhibition, the IC50, lay at 820 nM. Besides, the inhibition at 12.5 µM at mouse cGAS (setting [6]) came to 96%.

B1: crystal dsDNA (dsDNA)
DNA 1: AAATTGCCGAAGACGAA
DNA 2: TTTCGTCTTCGGCAATT
Turning to B1, the binding result in data set [3] is reported as “binds”.

(Values after paper PMC5622107, “Small molecule inhibition of cGAS reduces interferon expression in primary macrophages from autoimmune mice” (Nature Communications, 2017).)
